Consider nine compounds from patent US7626031B2, “Substituted 3-(diarylmethylene)indolin-2-ones and methods of their use” (Symphony Evolution, Inc., priority 2002, dated 2009).

The target of one test is IRK (Homo sapiens, UniProt P06213). As to the kind of experiment: Kinase assay, IRK. In kind it is biochemical. The protocol:
(§1) Kinase activity and compound inhibition are investigated using one or more assay formats. The ATP concentrations for each assay are selected to be close to the Michaelis-Menten constant (KM) for each individual kinase. Dose-response experiments are performed at 10 different inhibitor concentrations in a 384-well plate format. […] Exemplary kinase assays are described below. KDR Assay

A further test concerns the target c-Kit kinase (Homo sapiens, UniProt P10721). As to the kind of experiment: c-Kit AlphaScreen kinase assay. In kind it is biochemical. The protocol: as §1
c-Kit biochemical activity was assessed using AlphaScreen™ (Perkin Elmer) technology, described above. Test compounds, ATP, biotinylated poly(Glu, Tyr) and c-Kit kinase were combined in a volume of 20 μL in a 384-well white, medium binding microtiter plate (Greiner). Reaction mixtures were incubated for 1 hr at ambient temperature. Reactions were quenched by addition of 10 uL of […] AlphaScreen bead suspension containing 75 mM Hepes, pH 7.4, 300 mM NaCl, 120 mM EDTA, 0.3% BSA and 0.03% Tween-20. After 16 hr incubation at ambient temperature plates were read using an AlphaQuest reader (Perkin Elmer).
In general terms: In Alpha technology, singlet oxygen from a donor bead excites a nearby acceptor bead.

Test [1] deals with T1, KDR (baculovirus expressed human KDR kinase domain D807-V1356) (Homo sapiens, UniProt P35968).
T1 construct: human KDR kinase domain D807-V1356; host or cells: baculovirus expression system
The test can be described thus: biochemical. The essentials:
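Baculovirus human KDR kinase domain (D807–V1356) with ATP near its KM; 10-point dose-response, 4 h at ambient temperature. Activity taken as percent ATP remaining, detected by luciferase–luciferin chemiluminescence.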

In the next test the target is FGFR1 (Homo sapiens, UniProt P11362). As to the kind of experiment: Kinase assay, FGFR1 (33P-ATP incorporation or luciferase-coupled ATP consumption). In kind it is biochemical. The essentials: (§2)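 Kinase activity measured either by γ-33P ATP incorporation into immobilized substrate (MBP or pEY) with scintillation counting, or by luciferase-based ATP consumption with pEY. Enzyme 10 or 20 nM; ATP near each kinase's KM (e.g. 10 or 30 μM); 1 h at room temperature, 1% DMSO, 10-point dose-response.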

In the next test the target is Fyn (Homo sapiens, UniProt P06241). The test can be described thus: Kinase assay, Fyn. In kind it is biochemical. The protocol: as §1
Another test concerns the target EphA2 (Homo sapiens, UniProt P29317). The test can be described thus: Kinase assay, EphA2 (33P-ATP incorporation or luciferase-coupled ATP consumption). The class given is biochemical. The essentials:
as §2

In the next test the target is ALK (Homo sapiens, UniProt Q9UM73). As to the kind of experiment: Kinase assay, ALK (33P-ATP incorporation or luciferase-coupled ATP consumption). The class given is biochemical. The protocol:
Kinase assays were performed by measurement of incorporation of γ-^33P ATP into immobilized myelin basic protein (MBP). […] Plates were washed 3× with 100 μl TBS. […] Compound dilutions were performed in DMSO and added to assay wells to a final DMSO concentration of 1%. Each data point was measured in duplicate, and at least two duplicate assays were performed for each individual compound determination. Enzyme was added to final concentrations of 10 nM or 20 nM, for example. A mixture of unlabeled ATP and γ-^33P ATP was added to start the reaction (2×10^6 cpm of γ-^33P ATP per well (3000 Ci/mmole) and either 10 μM or 30 μM unlabeled ATP, typically. The reactions were carried out for 1 hour at room temperature with shaking. Plates were washed 7× with TBS, followed by the addition of 50 μl/well scintillation fluid (Wallac). Plates were read using a Wallac Trilux counter. This is only one format of such assays, various other formats are possible, as known to one of ordinary skill in the art.
Tyrosine kinase activity is determined by 1) measurement of kinase-dependent ATP consumption by in the presence of a generic substrate such as, polyglutamic acid, tyrosine, 4:1 (pEY), by luciferase/luciferin-mediated chemiluminescence or; 2) incorporation of radioactive phosphate derived from ^33P-ATP into a generic substrate which has been adsorbed onto the well surface of polystyrene microtiter plates. Phosphorylated substrate products are quantified by scintillation spectrometry.
as §1

The target of the next test is PDGFR alpha (Homo sapiens, UniProt P16234). The test can be described thus: Kinase assay, PDGFR alpha (33P-ATP incorporation or luciferase-coupled ATP consumption). In kind it is biochemical. To be noted: read-out: PDGF-R-A IC50. The essentials:
as §2

For another test, the target named is EGFR (Homo sapiens, UniProt P00533). The test can be described thus: Kinase assay, EGFR (33P-ATP incorporation or luciferase-coupled ATP consumption). In kind it is biochemical. The essentials:
as §2

A further test concerns the target T2, Flt3 (Homo sapiens, UniProt P36888).
T2 sequence (P36888 27-993): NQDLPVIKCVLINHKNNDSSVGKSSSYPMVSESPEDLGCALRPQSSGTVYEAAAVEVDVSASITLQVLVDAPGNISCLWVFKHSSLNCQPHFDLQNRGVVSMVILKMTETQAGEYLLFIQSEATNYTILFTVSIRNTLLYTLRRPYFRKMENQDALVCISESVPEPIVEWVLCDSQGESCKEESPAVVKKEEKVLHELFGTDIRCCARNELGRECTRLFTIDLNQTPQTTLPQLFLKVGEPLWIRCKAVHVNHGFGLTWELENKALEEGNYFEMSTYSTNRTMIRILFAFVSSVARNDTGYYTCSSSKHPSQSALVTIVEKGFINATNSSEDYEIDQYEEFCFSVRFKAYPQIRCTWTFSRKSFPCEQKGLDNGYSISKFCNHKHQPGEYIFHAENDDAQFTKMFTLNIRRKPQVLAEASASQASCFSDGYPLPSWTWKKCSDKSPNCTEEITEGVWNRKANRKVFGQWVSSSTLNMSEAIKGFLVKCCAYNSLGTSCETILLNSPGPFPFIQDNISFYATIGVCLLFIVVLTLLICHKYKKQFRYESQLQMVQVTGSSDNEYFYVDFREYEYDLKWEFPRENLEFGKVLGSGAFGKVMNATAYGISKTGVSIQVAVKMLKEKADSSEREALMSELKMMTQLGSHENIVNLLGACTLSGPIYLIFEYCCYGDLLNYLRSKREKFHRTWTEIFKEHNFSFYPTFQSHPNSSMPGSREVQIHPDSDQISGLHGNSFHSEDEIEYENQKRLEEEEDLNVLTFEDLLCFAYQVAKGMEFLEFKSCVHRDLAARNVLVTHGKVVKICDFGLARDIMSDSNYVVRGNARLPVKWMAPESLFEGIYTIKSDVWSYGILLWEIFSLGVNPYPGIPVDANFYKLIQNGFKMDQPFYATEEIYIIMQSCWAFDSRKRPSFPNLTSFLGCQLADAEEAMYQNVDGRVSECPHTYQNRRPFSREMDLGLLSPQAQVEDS
As to the kind of experiment: Kinase assay, Flt3. The class given is biochemical. The protocol: as §1

pIC50: −log10 of the molar value.

EGFR, sequence (P00533 25-1210, species assumed): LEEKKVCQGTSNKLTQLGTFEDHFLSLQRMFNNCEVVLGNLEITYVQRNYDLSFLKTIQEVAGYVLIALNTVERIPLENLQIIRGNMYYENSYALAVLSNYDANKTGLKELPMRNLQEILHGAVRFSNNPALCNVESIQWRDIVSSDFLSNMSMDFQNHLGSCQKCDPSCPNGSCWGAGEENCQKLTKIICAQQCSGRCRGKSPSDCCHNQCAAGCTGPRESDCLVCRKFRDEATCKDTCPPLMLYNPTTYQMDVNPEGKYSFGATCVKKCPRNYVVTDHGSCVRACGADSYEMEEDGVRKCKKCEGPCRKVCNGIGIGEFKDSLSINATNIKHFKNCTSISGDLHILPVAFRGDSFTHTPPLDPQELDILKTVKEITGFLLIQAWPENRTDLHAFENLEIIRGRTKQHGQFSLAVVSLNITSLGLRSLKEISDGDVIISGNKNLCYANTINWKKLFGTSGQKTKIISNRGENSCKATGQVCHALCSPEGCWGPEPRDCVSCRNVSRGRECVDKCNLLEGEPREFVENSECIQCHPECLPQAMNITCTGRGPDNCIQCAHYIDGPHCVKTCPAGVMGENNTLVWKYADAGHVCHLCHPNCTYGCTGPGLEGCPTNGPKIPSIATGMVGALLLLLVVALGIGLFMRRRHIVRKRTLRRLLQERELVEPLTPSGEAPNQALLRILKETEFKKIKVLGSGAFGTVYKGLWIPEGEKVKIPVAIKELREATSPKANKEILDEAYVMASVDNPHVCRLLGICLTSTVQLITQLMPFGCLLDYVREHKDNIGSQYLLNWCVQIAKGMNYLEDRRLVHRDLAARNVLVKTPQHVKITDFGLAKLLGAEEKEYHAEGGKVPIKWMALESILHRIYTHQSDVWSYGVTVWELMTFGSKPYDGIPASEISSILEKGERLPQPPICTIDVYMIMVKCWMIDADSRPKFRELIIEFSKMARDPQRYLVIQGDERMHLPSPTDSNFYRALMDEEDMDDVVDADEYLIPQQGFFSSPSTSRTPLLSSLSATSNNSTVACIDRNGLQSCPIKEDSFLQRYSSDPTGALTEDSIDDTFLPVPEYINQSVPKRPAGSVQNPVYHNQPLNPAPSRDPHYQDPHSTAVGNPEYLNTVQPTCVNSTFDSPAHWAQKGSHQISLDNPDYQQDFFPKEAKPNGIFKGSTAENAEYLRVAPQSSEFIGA
T1 sequence (P35968 807-1356): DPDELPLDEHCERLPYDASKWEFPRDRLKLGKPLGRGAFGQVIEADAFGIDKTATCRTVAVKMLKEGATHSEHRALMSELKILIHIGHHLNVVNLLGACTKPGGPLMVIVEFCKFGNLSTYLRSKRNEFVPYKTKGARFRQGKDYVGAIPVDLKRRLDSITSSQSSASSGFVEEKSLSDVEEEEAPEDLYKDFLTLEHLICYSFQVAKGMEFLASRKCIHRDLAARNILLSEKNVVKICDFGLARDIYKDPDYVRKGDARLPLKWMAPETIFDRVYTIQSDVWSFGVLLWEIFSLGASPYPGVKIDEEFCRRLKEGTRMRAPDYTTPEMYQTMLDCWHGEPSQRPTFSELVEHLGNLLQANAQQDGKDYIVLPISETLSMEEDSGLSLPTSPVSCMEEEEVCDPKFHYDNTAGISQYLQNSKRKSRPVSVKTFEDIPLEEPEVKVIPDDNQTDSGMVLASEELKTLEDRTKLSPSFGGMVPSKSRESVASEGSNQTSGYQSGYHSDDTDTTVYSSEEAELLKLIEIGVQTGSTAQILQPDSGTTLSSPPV
IRK, sequence (P06213 28-1382): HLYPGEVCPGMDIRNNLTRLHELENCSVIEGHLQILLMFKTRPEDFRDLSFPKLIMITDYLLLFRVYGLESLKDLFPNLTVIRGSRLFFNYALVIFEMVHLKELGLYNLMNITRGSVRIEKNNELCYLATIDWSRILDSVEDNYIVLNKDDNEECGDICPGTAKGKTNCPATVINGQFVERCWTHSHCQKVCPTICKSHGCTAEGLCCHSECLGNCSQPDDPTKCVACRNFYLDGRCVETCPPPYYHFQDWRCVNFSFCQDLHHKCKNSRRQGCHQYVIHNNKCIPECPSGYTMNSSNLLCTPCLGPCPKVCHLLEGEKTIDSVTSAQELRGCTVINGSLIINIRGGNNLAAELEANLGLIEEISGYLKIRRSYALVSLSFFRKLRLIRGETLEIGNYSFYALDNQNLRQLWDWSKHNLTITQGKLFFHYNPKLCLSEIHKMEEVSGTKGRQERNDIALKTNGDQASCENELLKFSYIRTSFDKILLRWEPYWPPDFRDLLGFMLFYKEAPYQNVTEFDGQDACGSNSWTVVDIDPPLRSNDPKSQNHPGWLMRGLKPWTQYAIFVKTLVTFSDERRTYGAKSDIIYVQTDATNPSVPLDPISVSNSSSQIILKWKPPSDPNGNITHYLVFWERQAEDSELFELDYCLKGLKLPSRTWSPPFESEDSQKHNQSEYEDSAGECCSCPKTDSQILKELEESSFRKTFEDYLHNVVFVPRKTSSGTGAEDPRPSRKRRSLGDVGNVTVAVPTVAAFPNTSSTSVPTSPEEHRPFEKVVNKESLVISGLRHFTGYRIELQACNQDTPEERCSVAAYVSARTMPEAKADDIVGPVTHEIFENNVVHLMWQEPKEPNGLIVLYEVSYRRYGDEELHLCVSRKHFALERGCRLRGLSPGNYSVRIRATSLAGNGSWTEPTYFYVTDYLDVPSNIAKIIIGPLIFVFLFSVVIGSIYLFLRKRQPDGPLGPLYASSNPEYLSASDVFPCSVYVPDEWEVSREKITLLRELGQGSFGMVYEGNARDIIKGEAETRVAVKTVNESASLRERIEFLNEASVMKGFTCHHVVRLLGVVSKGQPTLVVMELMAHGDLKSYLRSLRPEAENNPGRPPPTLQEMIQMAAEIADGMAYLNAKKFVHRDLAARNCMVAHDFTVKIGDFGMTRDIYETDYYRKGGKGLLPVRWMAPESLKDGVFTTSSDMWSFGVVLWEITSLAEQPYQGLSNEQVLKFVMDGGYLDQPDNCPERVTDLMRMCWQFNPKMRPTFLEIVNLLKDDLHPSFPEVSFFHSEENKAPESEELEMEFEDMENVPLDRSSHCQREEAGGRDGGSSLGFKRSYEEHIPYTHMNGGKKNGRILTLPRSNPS
Fyn, sequence (P06241 whole entry, species assumed): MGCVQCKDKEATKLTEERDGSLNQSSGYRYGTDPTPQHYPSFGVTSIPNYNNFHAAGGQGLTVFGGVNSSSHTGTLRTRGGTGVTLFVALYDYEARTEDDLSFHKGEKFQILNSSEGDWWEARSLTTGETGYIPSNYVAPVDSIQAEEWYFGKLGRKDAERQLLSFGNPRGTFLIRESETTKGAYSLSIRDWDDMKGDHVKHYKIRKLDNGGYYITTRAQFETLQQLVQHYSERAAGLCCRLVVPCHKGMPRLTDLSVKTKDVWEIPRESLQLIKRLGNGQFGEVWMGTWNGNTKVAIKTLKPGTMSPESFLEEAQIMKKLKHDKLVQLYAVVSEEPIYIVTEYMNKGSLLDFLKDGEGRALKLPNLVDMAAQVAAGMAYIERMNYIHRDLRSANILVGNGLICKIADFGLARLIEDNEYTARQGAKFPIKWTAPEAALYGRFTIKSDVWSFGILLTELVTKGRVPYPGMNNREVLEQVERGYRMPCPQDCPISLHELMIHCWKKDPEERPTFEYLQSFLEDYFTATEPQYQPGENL
FGFR1, sequence (P11362 22-822, species assumed): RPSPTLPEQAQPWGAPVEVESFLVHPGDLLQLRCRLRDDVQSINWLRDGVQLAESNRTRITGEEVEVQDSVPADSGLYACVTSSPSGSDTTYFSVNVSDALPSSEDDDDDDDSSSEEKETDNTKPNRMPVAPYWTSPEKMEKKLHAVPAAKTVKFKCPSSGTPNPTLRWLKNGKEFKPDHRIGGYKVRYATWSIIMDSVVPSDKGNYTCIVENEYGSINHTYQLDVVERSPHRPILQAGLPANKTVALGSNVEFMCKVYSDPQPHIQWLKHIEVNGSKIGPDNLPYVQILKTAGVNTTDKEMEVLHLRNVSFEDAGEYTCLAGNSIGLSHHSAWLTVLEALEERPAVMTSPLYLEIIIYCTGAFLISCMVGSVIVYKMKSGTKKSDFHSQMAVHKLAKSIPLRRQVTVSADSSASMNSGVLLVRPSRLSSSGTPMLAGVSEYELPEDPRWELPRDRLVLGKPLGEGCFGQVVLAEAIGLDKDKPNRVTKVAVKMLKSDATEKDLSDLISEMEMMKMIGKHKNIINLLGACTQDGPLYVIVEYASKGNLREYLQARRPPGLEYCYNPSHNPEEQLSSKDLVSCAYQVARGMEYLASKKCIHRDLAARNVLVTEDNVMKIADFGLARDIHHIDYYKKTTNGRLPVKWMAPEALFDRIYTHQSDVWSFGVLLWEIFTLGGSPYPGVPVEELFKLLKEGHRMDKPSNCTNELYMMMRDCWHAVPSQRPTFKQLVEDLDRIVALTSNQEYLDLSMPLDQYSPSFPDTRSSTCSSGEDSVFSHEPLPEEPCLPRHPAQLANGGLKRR

Take `CCN1CCC(Nc2ccc3c(c2)/C(=C(/c2nc(C)c[nH]2)c2cccc(F)c2F)C(=O)N3)CC1` [Entry 110, (3Z)-3-[(2,3-difluorophenyl)(4-methyl-1H-imidazol-2-yl)methylidene]-5-[(1-ethylpiperidin-4-yl)amino]-1,3-dihydro-2H-indol-2-one]: the pIC50 was 5.30 to 6.30 against IRK; over 7.30 on c-Kit kinase; over 7.30 in test [1]; over 7.30 against FGFR1; over 7.30 against Fyn; 5.30 to 6.30 at EphA2. For the same compound, the pIC50 against ALK is over 7.30; on PDGFR alpha it was over 7.30; at EGFR it was 6.30 to 7.30.

In the case of `CCN1CCC(Nc2ccc3c(c2)/C(=C(/c2ncc[nH]2)c2cc(F)c(Cl)cc2Cl)C(=O)N3)CC1` [Entry 116, (3Z)-3-[(2,4-dichloro-5-fluorophenyl) (1H-imidazol-2-yl)methylidene]-5-[(1-ethylpiperidin-4-yl)amino]-1,3-dihydro-2H-indol-2-one], the pIC50 at IRK was 5.30 to 6.30; at c-Kit kinase, over 7.30; in [1] it was over 7.30; on FGFR1, over 7.30; on Flt3 it was over 7.30; against Fyn it was over 7.30. Further, the pIC50 at EphA2 was 5.30 to 6.30; on PDGFR alpha, over 7.30; against EGFR, 6.30 to 7.30.

In the case of `CCN1CCC(Nc2ccc3c(c2)/C(=C(/c2nc(C)c[nH]2)c2cc(F)c(Cl)cc2Cl)C(=O)N3)CC1` [Entry 117, (3Z)-3-[(2,4-dichloro-5-fluorophenyl)(4-methyl-1H-imidazol-2-yl)methylidene]-5-[(1-ethylpiperidin-4-yl)amino]-1,3-dihydro-2H-indol-2-one], the negative logarithm of the IC50 (pIC50) on IRK is 5.30 to 6.30; against c-Kit kinase, over 7.30; in test [1] it was over 7.30; at FGFR1, over 7.30; against Flt3, over 7.30; at Fyn it was over 7.30. Besides, the negative-log IC50 (pIC50) against EphA2 is 5.30 to 6.30; on PDGFR alpha, over 7.30; against EGFR, 6.30 to 7.30.

For `CCN1CCC(Nc2ccc3c(c2)/C(=C(\c2cc(F)cc(F)c2)c2nc(C)c[nH]2)C(=O)N3)CC1` [Entry 74, (3Z)-3-[(3,5-difluorophenyl)(4-methyl-1H-imidazol-2-yl)methylidene]-5-[(1-ethylpiperidin-4-yl)amino]-1,3-dihydro-2H-indol-2-one], the pIC50 on IRK was 5.30 to 6.30; at c-Kit kinase it was over 7.30; against Flt3 it was over 7.30; against Fyn, over 7.30; against EphA2, 6.30 to 7.30; against ALK it was 6.30 to 7.30. In addition, the pIC50 on EGFR is 6.30 to 7.30.

With `CCN1CCC(Nc2ccc3c(c2)/C(=C(/c2nc(C)c[nH]2)c2ccc(Cl)cc2F)C(=O)N3)CC1` [Entry 118, (3Z)-3-[(4-chloro-2-fluorophenyl)(4-methyl-1H-imidazol-2-yl)methylidene]-5-[(1-ethylpiperidin-4-yl)amino]-1,3-dihydro-2H-indol-2-one], the negative logarithm of the IC50 (pIC50) against IRK is 6.30 to 7.30; against c-Kit kinase, over 7.30; in [1] it was over 7.30; against FGFR1, over 7.30; against Fyn it was over 7.30; against EphA2, 5.30 to 6.30. In addition, the pIC50 against ALK and on EGFR was over 7.30 in each case.

As to `CCN1CCC(Nc2ccc3c(c2)/C(=C(\c2ccc(Cl)cc2)c2nc(C)c[nH]2)C(=O)N3)CC1` [Entry 102], the negative-log IC50 (pIC50) is 5.30 to 6.30 at IRK; over 7.30 on c-Kit kinase; over 7.30 in test [1]; over 7.30 at FGFR1; over 7.30 against Fyn; 5.30 to 6.30 at EphA2. Also, the figures for the negative-log IC50 (pIC50) on ALK, at PDGFR alpha and against EGFR were over 7.30, over 7.30 and 6.30 to 7.30, respectively.

As for `CCN1CCC(Nc2ccc3c(c2)/C(=C(\c2ccc(F)cc2)c2ncc[nH]2)C(=O)N3)CC1` [Entry 58, (3Z)-5-[(1-ethylpiperidin-4-yl)amino]-3-[(4-fluorophenyl)(1H-imidazol-2-yl)methylidene]-1,3-dihydro-2H-indol-2-one], the pIC50 against IRK is under 5.30; on c-Kit kinase, over 7.30; in [1], over 7.30; against FGFR1 it was over 7.30; on Fyn, over 7.30; against EphA2, 5.30 to 6.30. The pIC50 against ALK was 6.30 to 7.30; at PDGFR alpha it was over 7.30; against EGFR, 5.30 to 6.30.

For `CCN1CCC(Nc2ccc3c(c2)/C(=C(/c2nc(C)c[nH]2)c2ccc(F)cc2F)C(=O)N3)CC1` [Entry 111, (3Z)-3-[(2,4-difluorophenyl)(4-methyl-1H-imidazol-2-yl)methylidene]-5-[(1-ethylpiperidin-4-yl)amino]-1,3-dihydro-2H-indol-2-one], the pIC50 at IRK is 5.30 to 6.30; on c-Kit kinase, over 7.30; in test [1] it was over 7.30; against FGFR1, 6.30 to 7.30; on Fyn it was over 7.30; at EphA2, 5.30 to 6.30. Also, the values for the pIC50 at ALK, at PDGFR alpha and against EGFR were 6.30 to 7.30, over 7.30 and 6.30 to 7.30, respectively.

Take `CCN1CCC(Nc2ccc3c(c2)/C(=C(\c2ccc(C)cc2)c2nc(C)c[nH]2)C(=O)N3)CC1` [Entry 64, (3Z)-5-[(1-ethylpiperidin-4-yl)amino]-3-[(4-methyl-1H-imidazol-2-yl)(4-methylphenyl)methylidene] 1,3-dihydro-2H-indol-2-one]: the pIC50 against IRK is 5.30 to 6.30; in test [1], over 7.30; on FGFR1, over 7.30; on Fyn, over 7.30; at EphA2, 6.30 to 7.30; against ALK, over 7.30. In addition, the pIC50 on PDGFR alpha was over 7.30; on EGFR, 6.30 to 7.30.

The pIC50 is the IC50 on a negative log10 scale, so that one unit is a factor of ten.
